The values that follow come from US20260137714A1, “METHODS AND COMPOSITIONS FOR TREATMENT OF OPHTHALMIC DISEASE” (Design Therapeutics, Inc., priority 2022, published 2026).

The nature of data set [1]: Compound solubility in water using in situ salt formation with aqueous HCl. It counts as physicochemical. Conditions: for Result: appearance at the final concentration; for solubility: aqueous buffer, thermodynamic from solid, water with aqueous HCl, in situ salt formation, started at 10 mg/ml, minimum tested 1 mg/ml, read-out: Final Concentration; for pH: pH of the solution at the end of the experiment, before any aq. NaOH; for pH after aq. NaOH: pH of the solution after adjustment with aq. NaOH. The method, then: To determine solubility of candidate compounds, solubility of the compounds was determined at a concentration of 10 mg/ml using in situ salt formation with aqueous HCl. First, 0.5 ml of sterile water was added to 10 mg of dry compound, vortexed, and briefly centrifuged. Next, 0.5 equivalents of 0.025 M HCl were added to the mixture followed by a volume of water that totaled 1 ml. The mixture was stirred continuously for 0.5 to 24 h. […] If the solution was not clear, additional water and/or HCl was added, along with continuous stirring and vortexing until it was determined that the compound had completely dissolved or was refractory to dissolution. The minimum concentration tested was 1 mg/ml. pH values were assessed at the end of the experiment.

Data set [2] concerns Immortalized Fuchs endothelial corneal dystrophy cells (F35T). The data set can be described thus: In vitro foci assay (nuclear foci by FISH with (CAG)10-Cy3 oligonucleotide). The note with it: 48 h treatment, 3000 to 1 nM. The data set is classed as cell-based. The method, then:
Immortalized Fuchs endothelial corneal dystrophy cells (F35T) were seeded in black-sided clear-bottomed 96 well plates at 5000 cells per well 16 hours prior to compound treatment. Compounds were dissolved in DMSO to 1 mM and diluted to a final concentration of 3000 to 1 nM in F35T cell culture media. Diluted compounds were added to the F35T cells and incubated for 48 h.
Following treatment, cells were fixed in 4% paraformaldehyde for 20 min, washed twice with PBS, and permeabilized with 70% ethanol at −20 deg C. for 16 h. Following permeabilization, cells were washed twice with PBS then hydrated with 30% formamide plus 2×SSC buffer for 10 min. Nuclear foci were labeled using fluorescent in situ hybridization with a (CAG)10-Cy3 oligonucleotide. Images were collected and automated image analysis was performed on a BioTEK Cytation 5.

Data set [3] is described as follows: Ex vivo bovine eye penetration of compounds formulated in water. The data set is classed as in vitro ADME. Conditions: for Cornea, R1 / Descemet Membrane/endothelial cells, R1: bovine eye, 30 min at room temperature, LC-MS, replicate R1. The method, then: Freshly enucleated bovine eyes (Nebraska Scientific) were treated with compound as described previously (Luschmann et al., “Developing an in situ nanosuspension: a novel approach towards the efficient administration of poorly soluble drugs at the anterior eye”, European Journal of Pharmaceutical Sciences (2013)). Individual eyes were rinsed with 10 mL of sterile 0.9% saline then placed in the bottom of a 600 mL glass beaker (Pyrex). A borosilicate glass powder funnel with a 26 mm diameter stem (Eisco Labs) was gently rested on top of the eye with the cornea centered in the cylindrical opening, creating a sealed dosing chamber in which solutions were applied. Eyes were equilibrated in sterile 0.9% saline at room temperature for 20 min then decanted. 500 μL of 0.1 to 0.3% GeneTAC compound was applied to the cornea followed by 167 μL of sterile water to mimic the instillation a 30 μL eye drop into 10 μL of tear fluid. Compound was incubated for 30 min at room temperature after which the funnel was removed. Next, eyes were washed twice with 10 ml of 5.2% aqueous mannitol solution to remove residual compound. Aqueous humor was recovered using a 28-gauge needle and snap frozen in liquid nitrogen. The cornea was then surgically excised, and the Descemet membrane and corneal endothelium (DM/CE) were removed with fine forceps under a dissecting microscope and snap frozen in liquid nitrogen. Compound abundance was quantified in aqueous humor, anterior cornea, and DM/CE using liquid chromatography-mass spectrometry.

In the case of `COCCOCCOCCOCCN(CCCNC(=O)c1nc(NC(=O)c2cc(NC(=O)CCNC(=O)c3nc(NC(=O)CCCNC(=O)c4cc(NC(=O)c5nc(NC(=O)CCNC(=O)c6cc(NC(=O)c7nccn7C)cn6C)cn5C)cn4C)cn3C)cn2C)cn1C)CCOCCOCCOCCOC` [Compound 201], in data set [1], the Result result is given as “Clear solution”, the solubility was ≥ 10000 µg/mL and the pH worked out at 6.04. In data set [2], this molecule gave an IC50 of 167 nM. Further, the “Concentrations reached in corneal epithelium and stroma and in Descemet membrane and endothelium, relative to IC50” value in data set [3] (FIG. 1, ex vivo bovine eye distribution) is given as “above the IC50 for preventing foci formation as well as above the IC50 for preventing abnormal splicing events”. In addition, in data set [3], the “Cornea, R1” value came to 798 nM and the “Descemet Membrane/endothelial cells, R1” value was 46 nM.

Regarding `CN1CC2(CCN(C(=O)CCNC(=O)c3nc(NC(=O)c4cc(NC(=O)CCNC(=O)c5nc(NC(=O)CCCNC(=O)c6cc(NC(=O)c7nc(NC(=O)CCNC(=O)c8cc(NC(=O)c9nccn9C)cn8C)cn7C)cn6C)cn5C)cn4C)cn3C)CC2)C1` [Compound 202], in data set [1], the Result result is recorded as “Clear solution”, the solubility is ≥ 4030 µg/mL, the “pH after aq. NaOH” value worked out at 6.24 and the pH is 3.10. The IC50 in data set [2] came to 213 nM.

`CN1CC(C2CCN(C(=O)CCNC(=O)c3nc(NC(=O)c4cc(NC(=O)CCNC(=O)c5nc(NC(=O)CCCNC(=O)c6cc(NC(=O)c7nc(NC(=O)CCNC(=O)c8cc(NC(=O)c9nccn9C)cn8C)cn7C)cn6C)cn5C)cn4C)cn3C)CC2)C1` [Compound 203]: in data set [1], the Result entry is “Clear solution”, the solubility was ≥ 3180 µg/mL and the pH was determined as 8.04. The IC50 in data set [2] was found to be 384 nM.

With `Cn1cc(NC(=O)c2nc(NC(=O)CCNC(=O)c3cc(NC(=O)c4nccn4C)cn3C)cn2C)cc1C(=O)NCCCC(=O)Nc1cn(C)c(C(=O)NCCC(=O)Nc2cc(C(=O)Nc3cn(C)c(C(=O)NCCC(=O)N4CCC(C5CNC5)CC4)n3)n(C)c2)n1` [Compound 204], in data set [1], the Result result is given as “Clear solution”, the solubility is ≥ 3780 µg/mL, the “pH after aq. NaOH” value worked out at 6.73 and the pH amounted to 2.32. For the same molecule, the IC50 in data set [2] stood at 518 nM.

Take `CN(C)CCOCCNC(=O)c1nc(NC(=O)c2cc(NC(=O)CCNC(=O)c3nc(NC(=O)CCCNC(=O)c4cc(NC(=O)c5nc(NC(=O)CCNC(=O)c6cc(NC(=O)c7nccn7C)cn6C)cn5C)cn4C)cn3C)cn2C)cn1C` [Compound 205]: in data set [1], the Result result is recorded as “Clear solution”, the solubility is ≥ 1000 µg/mL and the pH is given as 7.62. In data set [2], this molecule came in with an IC50 of 65 nM.

Turning to `Cn1cc(NC(=O)c2nc(NC(=O)CCNC(=O)c3cc(NC(=O)c4nccn4C)cn3C)cn2C)cc1C(=O)NCCCC(=O)Nc1cn(C)c(C(=O)NCCC(=O)Nc2cc(C(=O)Nc3cn(C)c(C(=O)NCCCN4CCOCC4)n3)n(C)c2)n1` [Compound 206], in data set [1], the Result entry is listed as “Clear solution”, the solubility was ≥ 1000 µg/mL and the pH is 4.96. The molecule also came in with an IC50 in data set [2] of 172 nM.

In the case of `Cn1cc(NC(=O)c2nc(NC(=O)CCNC(=O)c3cc(NC(=O)c4nccn4C)cn3C)cn2C)cc1C(=O)NCCCC(=O)Nc1cn(C)c(C(=O)NCCC(=O)Nc2cc(C(=O)Nc3cn(C)c(C(=O)NCCC(=O)N4CCC(C#CC#CC5CCNCC5)CC4)n3)n(C)c2)n1` [Compound 207], in data set [1], the Result result is “Clear solution” and the solubility is ≥ 10000 µg/mL. This molecule also returned an IC50 in data set [2] of 33 nM.

`Cn1cc(NC(=O)c2nc(NC(=O)CCNC(=O)c3cc(NC(=O)c4nccn4C)cn3C)cn2C)cc1C(=O)NCCCC(=O)Nc1cn(C)c(C(=O)NCCC(=O)Nc2cc(C(=O)Nc3cn(C)c(C(=O)NCCC(=O)N4CCC5(CC4)CNC5)n3)n(C)c2)n1` [Compound 208]: in data set [1], the Result result is given as “Clear solution”, the solubility was ≥ 3530 µg/mL, the “pH after aq. NaOH” value is 6.07 and the pH was found to be 2.75. Also, the midpoint of inhibition in data set [2], the IC50, lay at 186 nM.

`CN1CCN(C(=O)CCNC(=O)c2nc(NC(=O)c3cc(NC(=O)CCNC(=O)c4nc(NC(=O)[C@H](N)CCNC(=O)c5cc(NC(=O)c6nc(NC(=O)CCNC(=O)c7cc(NC(=O)c8nccn8C)cn7C)cn6C)cn5C)cn4C)cn3C)cn2C)CC1` [Compound 209]: in data set [1], the Result entry is “Clear solution”, the solubility was ≥ 10000 µg/mL and the pH is 2.21. For the same molecule, it took 1650 nM to reach half-maximal inhibition in data set [2] (IC50).

On to `Cn1cc(NC(=O)c2nccn2C)cc1C(=O)NCCC(=O)Nc1cn(C)c(C(=O)Nc2cc(C(=O)NCC[C@@H](N)C(=O)Nc3cn(C)c(C(=O)NCCC(=O)Nc4cc(C(=O)Nc5cn(C)c(C(=O)NCCC(=O)N6CCC(C#CC#CC7CCNCC7)CC6)n5)n(C)c4)n3)n(C)c2)n1` [Compound 210], for which, in data set [1], the Result entry is given as “Clear solution”, the solubility was ≥ 10000 µg/mL and the pH turned out to be 2.14. The molecule also came in with an IC50 in data set [2] of 715 nM.

On to `CN(C)CCCCNC(=O)c1nc(NC(=O)c2cc(NC(=O)CCNC(=O)c3nc(NC(=O)[C@H](N)CCNC(=O)c4cc(NC(=O)c5nc(NC(=O)CCNC(=O)c6cc(NC(=O)c7nccn7C)cn6C)cn5C)cn4C)cn3C)cn2C)cn1C` [Compound 211], for which, in data set [1], the Result entry was “Clear solution”, the solubility was ≥ 10000 µg/mL and the pH worked out at 2.14. The IC50 in data set [2] turned out to be 1640 nM.

As to `COCCOCCOCCOCCOCCOCCOc1ccc(C#CCNCCCNC(=O)c2nc(NC(=O)c3cc(NC(=O)CCNC(=O)c4nc(NC(=O)CCCNC(=O)c5cc(NC(=O)c6nc(NC(=O)CCNC(=O)c7cc(NC(=O)c8nccn8C)cn7C)cn6C)cn5C)cn4C)cn3C)cn2C)cc1` [Compound 212], in data set [1], the Result entry is “Clear solution”, the solubility was ≥ 10000 µg/mL and the pH was 1.97. Besides, the IC50 in data set [2] stood at 378 nM.

Take `Cn1cc(NC(=O)c2nc(NC(=O)CCNC(=O)c3cc(NC(=O)c4nccn4C)cn3C)cn2C)cc1C(=O)NCCCC(=O)Nc1cn(C)c(C(=O)NCCC(=O)Nc2cc(C(=O)Nc3cn(C)c(C(=O)NCCC(=O)N4CCC(N5CCNCC5)CC4)n3)n(C)c2)n1` [Compound 213]: in data set [1], the Result result is “Clear solution”, the solubility was ≥ 3210 µg/mL and the pH amounted to 6.64. Also, in data set [2], the IC50 came to 892 nM. Besides, in data set [3], the “Cornea, R1” value was determined as 50 nM and the “Descemet Membrane/endothelial cells, R1” value was “BQL”.

`CCCCn1cc(NC(=O)c2nc(NC(=O)CCNC(=O)c3cc(NC(=O)c4nccn4C)cn3C)cn2C)cc1C(=O)NCC[C@@H](N)C(=O)Nc1cn(C)c(C(=O)NCCC(=O)Nc2cc(C(=O)Nc3cn(C)c(C(=O)NCCC(=O)N4CCN(C)CC4)n3)n(C)c2)n1` [Compound 214]: in data set [1], the Result entry is “Clear solution”, the solubility is ≥ 10000 µg/mL and the pH is listed as 2.16. Further, the IC50 in data set [2] came to 237 nM.

Broadly, the IC50 is the concentration that inhibits the measured activity by half. Read a high IC50 as weaker potency in that assay.
